pIC50: −log10 of the molar value.
Legend:
tankyrase 2 (TNKS2) = target: T1, tankyrase 2 (TNKS2) (Homo sapiens, UniProt Q9H2K2); test: μHTS-TNKS-IWR2 TR-FRET Binding Assay (Example 118), His6-TNKS2 substituted; details: procedure in Example 118 with His6-TNKS2
T1 construct: His6-tankyrase 2 (construct: 934-1166) (His6-TNKS2)
Method: (§1) μHTS-TNKS-IWR2 TR-FRET Binding Assay (10 μL/well in BD1536-well plate, a single point)
(§2) Reagents and Stock Solutions
Tankyrase 1 (TNKS1): 184.3 μM=5.2 mg/mL His6-TNKS1, MW=28.2 KDa (construct: 1088-1327, 1266M) in 20 mM Tris pH 8, 150 mM NaCl, 10% glycerol, and 0.5 mM TCEP. Alternatively, His6-tankyrase 2 (construct: 934-1166) (His6-TNKS2) or His6-PARP1 (full length) can be substituted for His6-TNKS 1.
(§3) Biotin-4-((1S,2R,6S,7R)-3,5-Dioxo-4-aza-tricyclo[5.2.1.0*2,6]dec-8-en-4-yl)-N-(4-methyl-quinolin-8-yl)-benzamide (Biotin-IWR2): 10 mM Biotin-IWR2 stock in DMSO, stored at −20° C.
Positive control: 10 mM 2-(4-Trifluoromethyl-phenyl)-3,5,7,8-tetrahydro-thiopyrano[4,3-d]pyrimidin-4-one (XAV939) in DMSO, stored at −20° C.
APC-anti-His Ab: 8.50 μM SL-APC, 8.26 μM anti-6His antibody-SureLight APC (Columia Bioscience, Catalog Number D3-1711, Lot Number N01010-AAH04)
Assay plate: BD 1536-well, clear/black plate (Catalog Number 353255)
(§4) Assay buffer 1a (AB1a) for TNKS dilution: 50 mM Tris, pH 7.4, 100 mM sodium chloride solution, 1 mM magnesium chloride solution, 1 mM DL-dithiothreitol solution, 0.2 mg/mL bovine serum albumin solution, 0.025% NP-40.
(§5) Assay buffer 1b (AB1b) for Biotin-IWR2 dilution: 50 mM Tris, pH 7.4, 100 mM sodium chloride solution, 1 mM magnesium chloride solution, 1 mM DL-dithiothreitol solution, 0.2 mg/mL bovine serum albumin solution, 0.05% NP-40
(§6) Assay buffer 1c (AB1c) for compound dilution: 50 mM Tris, pH 7.4, 100 mM sodium chloride solution, 1 mM magnesium chloride solution, 1 mM DL-dithiothreitol solution, 0.2 mg/mL bovine serum albumin solution
(§7) Assay buffer 2 (AB2) for Eu/APC: 50 mM Tris, pH 7.4, 100 mM sodium chloride solution, 1 mM magnesium chloride solution, 0.2 mg/mL bovine serum albumin solution
(§8) Reagent Stock Solution Preparation
Prepare Biotinylated IWR2 stock solution (3.33× stock) for TOTL and compound wells: 200 nM Biotin-IWR2 in 5% DMSO/AB1b buffer
(§9) Prepare BLANK well stock solution: 5% DMSO/AB1b buffer
Prepare POSITIVE CONTROL well stock solution (3.33× stock): 200 nM XAV939 in 200 nM Biotin-IWR2/5% DMSO/AB1b buffer
(§10) Prepare TNKS 1 stock solution (5× stock): 300 nM TNKS in AB1a buffer. (Alternatively, use TNKS2 or PARP1 stock solutions.)
Prepare Eu/APC stock solution (5× stock): 3.5 nM Eu-SA/50 nM APC-His6Ab in AB2 buffer.
Add 25 μL/well 1.5% DMSO/AB1c buffer in each compound well to the compound concentration at 74 μM in 8.8% DMSO/AB1c buffer or in the 2 μL DMSO CONTROL wells (BLANK, TOTAL and POSITIVE wells) in the compound plate. Transfer 3 μL/well of above solution (solution 1,2,3) to an empty assay plate (BD1536-well plate) as follows: • TOTAL and cpd wells: Solution 1 (Biotin-IWR2): • BLANK wells: Solution 2 (No Biotin-IWR2): • POSITIVE CONTROL wells: Solution 3 (Biotin-IWR2+XAV939)
(§11) Transfer 3 μL/well of the above diluted compound solutions or compound dilution buffer to the above assay plate. Add 2 μL/well of 300 nM TNKS stock solution (4) to every well in the above assay plate. Centrifuge the assay plate at 2100 rpm for 2 min. Incubate the assay plate at 26° C. for 30 minutes. Add 2 μL/well 3.5 nMEu/50 nM APC solution (5) to every well in the above assay plate. Centrifuge the assay plate at 2100 rpm for 2 min. Incubate the assay plate at 26° C. for 60 min. Read the assay plate immediately at excitation wavelength of 330 nm and emission wavelength of 615 and 665 nM in time resolved fluorescence mode.
XAV939 (+ve control): 60 nM at ˜70% Inhibition
General Library compounds: 22.23 μM in 4% DMSO

Tankyrase 1 (TNKS1) = target: T2, Tankyrase 1 (TNKS1) (Homo sapiens, UniProt O95271); test: μHTS-TNKS-IWR2 TR-FRET Binding Assay (Example 118), His6-TNKS1
T2 construct: His6-TNKS1, MW=28.2 KDa (construct: 1088-1327, 1266M)
T2 sequence (O95271 1088-1327): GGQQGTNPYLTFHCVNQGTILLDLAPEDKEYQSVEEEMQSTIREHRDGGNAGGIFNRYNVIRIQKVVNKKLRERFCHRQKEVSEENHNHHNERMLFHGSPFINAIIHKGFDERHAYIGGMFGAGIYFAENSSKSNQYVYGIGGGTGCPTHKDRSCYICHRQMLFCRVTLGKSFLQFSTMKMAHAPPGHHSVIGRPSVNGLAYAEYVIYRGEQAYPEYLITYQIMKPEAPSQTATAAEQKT
Method: as §1, §2, §3
(XAV939) in DMSO, stored at −20° C.
as §4, §5, §6, §7, §8, §9, §10
Transfer 3 μL/well of above solution (solution 1,2,3) to an empty assay plate (BD1536-well plate) as follows: • TOTAL and cpd wells: Solution 1 (Biotin-IWR2): • BLANK wells: Solution 2 (No Biotin-IWR2): • POSITIVE CONTROL wells: Solution 3 (Biotin-IWR2+XAV939)
as §11, with “min.” for “min. Read the assay plate immediately at excitation wavelength of 330 nm and emission wavelength of 615 and 665 nM in time resolved fluorescence mode.”

[1] = system: Wnt stimulated TCF transcriptional activity, HEK293-TS 112 TCF reporter cell line; test: Tankyrase 1 Assay (Example 119): Wnt3A-stimulated TOPbrite TCF luciferase reporter; assay type: cell-based; details: Compounds I-59 to I-144, procedure in Example 119 (0.5 ug/mL Wnt3A, 16 hours); read-out: TNKS1 (IC50)
Summary of the method: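 HEK293 cells carrying TOPbrite firefly luciferase (eight TCF/LEF sites) were stimulated with 0.5 ug/mL Wnt3A and exposed to compounds for 16 hours at 37 degrees, 5% CO2. Firefly/SV40 Renilla luciferase ratio minus background from non-Wnt3A wells gave TCF activity; IC50 by four-parameter fit.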

T1 sequence (Q9H2K2 934-1166): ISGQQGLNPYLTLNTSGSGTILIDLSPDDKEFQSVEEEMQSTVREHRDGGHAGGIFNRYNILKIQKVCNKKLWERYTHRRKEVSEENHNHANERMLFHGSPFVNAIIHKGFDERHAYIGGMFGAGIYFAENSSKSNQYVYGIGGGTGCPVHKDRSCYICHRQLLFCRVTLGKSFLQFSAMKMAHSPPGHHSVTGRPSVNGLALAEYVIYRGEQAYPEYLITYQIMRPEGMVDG

Structure (SMILES) | pIC50 (tankyrase 2 (TNKS2)) | pIC50 (Tankyrase 1 (TNKS1)) | pIC50 [1]
Cn1ncc2c(=O)[nH]c(N3CCN(c4ccccc4C#N)CC3)nc21 [Compound I-15, 2-[4-(1-methyl-4-oxo-5H-pyrazolo[3 4-d]pyrimidin-6-yl)piperazin-1-yl]benzonitrile] | 7.02 | 7.13 | –
Cn1ncc2c(=O)[nH]c(N3CCN(c4ncccc4C(F)(F)F)CC3)nc21 [Compound I-20, 1-methyl-6-[4-[3-(trifluoromethyl)-2-pyridyl]piperazin-1-yl]-5H-pyrazolo[3 4-d]pyrimidin-4-one] | 7.36 | 7.51 | –
Cn1ncc2c(=O)[nH]c(N3CCN(c4cc(O)cc(F)c4F)CC3)nc21 [Compound I-57, 6-[4-(2 3-difluoro-5-hydroxy-phenyl)piperazin-1-yl]-1-methyl-5H-pyrazolo[3 4-d]pyrimidin-4-one] | 7.25 | 7.18 | –
Cn1ncc2c(=O)[nH]c(-c3ccc(C(F)(F)F)nc3)cc21 [Compound I-29, 1-methyl-6-[6-(trifluoromethyl)-3-pyridyl]-5H-pyrazolo[4 3-c]pyridin-4-one] | 6.98 | 6.82 | –
Cn1ncc2c(=O)[nH]c(N3CCN(c4ncccc4C(F)(F)F)CC3)cc21 [Compound I-26, 1-methyl-6-[4-[3-(trifluoromethyl)-2-pyridyl]piperazin-1-yl]-5H-pyrazolo[4 3-c]pyridin-4-one] | 7.52 | 7.54 | –
Cn1ncc2c(=O)[nH]c(N3CCN(c4ccnc(Cl)c4Cl)CC3)nc21 [Compound I-46, 6-[4-(2 3-dichloro-4-pyridyl)piperazin-1-yl]-1-methyl-5H-pyrazolo[3 4-d]pyrimidin-4-one] | 7.03 | 7.21 | –
COCCOc1cc(F)c(F)c(N2CCN(c3nc4c(cnn4C)c(=O)[nH]3)CC2)c1 [Compound I-58] | 7.33 | – | –
Cn1ncc2c(=O)[nH]c(N3CCN(c4c(F)cccc4F)CC3)cc21 [Compound I-51, 6-[4-(2 6-difluorophenyl)piperazin-1-yl]-1-methyl-5H-pyrazolo[4 3-c]pyridin-4-one] | 7.64 | 7.60 | –
Cn1ncc2c(=O)[nH]c(N3CCC(c4ccc(C(F)(F)F)cc4)CC3)nc21 [Compound I-6, 1-methyl-6-[4-[4-(trifluoromethyl)phenyl]-1-piperidyl]-5H-pyrazolo[3 4-d]pyrimidin-4-one] | 7.17 | 7.18 | –
Cn1ncc2c(=O)[nH]c(-c3ccc(C(F)(F)F)cc3)cc21 [Compound I-13, 1-methyl-6-[4-(trifluoromethyl)phenyl]-5H-pyrazolo[4 3-c]pyridin-4-one] | 7.49 | 7.49 | –
Cn1ncc2c(=O)[nH]c(N3CCN(c4ccccc4C(F)(F)F)CC3)nc21 [Compound I-19, 1-methyl-6-[4-[2-(trifluoromethyl)phenyl]piperazin-1-yl]-5H-pyrazolo[3 4-d]pyrimidin-4-one] | 7.49 | 7.57 | –
Cn1ncc2c(=O)[nH]c(N3CCN(c4c(Cl)cncc4Cl)CC3)nc21 [Compound I-34, 6-[4-(3 5-dichloro-4-pyridyl)piperazin-1-yl]-1-methyl-5H-pyrazolo[3 4-d]pyrimidin-4-one] | 7.54 | 7.54 | –
Cn1ncc2c(=O)[nH]c(N3CCC(O)(c4ccccn4)CC3)nc21 [Compound I-35, 6-[4-hydroxy-4-(2-pyridyl)-1-piperidyl)-1-methyl-5H-pyrazolo[3 4-d]pyrimidin-1-one] | 7.02 | 7.16 | –
Cn1ncc2c(=O)[nH]c(N3CCN(c4ccc(F)cc4F)CC3)cc21 [Compound I-16, 6-[4-(2 4-difluorophenyl)piperazin-1-yl]-1-methyl-5H-pyrazolo[4 3-c]pyridin-4-one] | 7.32 | 7.32 | –
Cn1ncc2c(=O)[nH]c(N3CCN(c4ncccc4C#N)CC3)nc21 [Compound I-18, 2-[4-(1-methyl-4-oxo-5H-pyrazolo[3 4-d]pyrimidin-6-yl)piperazin-1-yl]pyridine-3-carbonitrile] | 6.64 | 6.82 | –
Cn1ncc2c(=O)[nH]c(N3CCN(c4ccc(F)cc4S(C)(=O)=O)CC3)cc21 [Compound I-25, 6-[4-(4-fluoro-2-methylsulfonyl-phenyl)piperazin-1-yl]-1-methyl-5H-pyrazolo[4 3-c]pyridin-4-one] | 7.35 | 7.36 | –
Cn1ncc2c(=O)[nH]c(N3CCN(c4c(Cl)cccc4Cl)CC3)nc21 [Compound I-42, 6-[4-(2 6-dichlorophenyl)piperazin-1-yl]-1-methyl-5H-pyrazolo[3 4-d]pyrimidin-4-one] | 7.58 | 7.62 | –
Cn1ncc2c(=O)[nH]c(N3CCN(c4ccc(S(N)(=O)=O)cc4F)CC3)nc21 [Compound I-48, 3-fluoro-4-[4-(1-methyl-4-oxo-5H-pyrazolo[3 4-d]pyrimidin-6-yl)piperazin-1-yl]benzenesulfonamide] | 7.31 | 7.47 | –
O=c1[nH]c(N2CCC(c3ccc(F)cc3)CC2)cc2[nH]ncc12 [Compound I-11, 6-[4-(4-fluorophenyl)-1-piperidyl]-1 5-dihydropyrazolo[4 3-c]pyridin-4-one] | 6.80 | 6.97 | –
Cn1ncc2c(=O)[nH]c(-c3ccc(C(F)(F)F)cc3)nc21 [Compound I-4, 1-methyl-6-[4-(trifluoromethyl)phenyl]-5H-pyrazolo[3 4-d]pyrimidin-4-one] | 7.46 | 7.60 | –
Cn1ncc2c(=O)[nH]c(N3CCN(c4c(F)cc([N+](=O)[O-])cc4F)CC3)nc21 [Compound I-49, 6-[4-(2 6-difluoro-4-nitro-phenyl)piperazin-1-yl]-1-methyl-5H-pyrazolo[3 4-d]pyrimidin-4-one] | 7.49 | 7.47 | –
Cn1ncc2c(=O)[nH]c(N3CCN(c4c(F)cc(OCC(O)CO)cc4F)CC3)nc21 (stereo not drawn) [Compound I-68, 6-[4-[4-(2 3-dihydroxypropoxy)-2 6-difluoro-phenyl]piperazin-1-yl]-1-methyl-5H-pyrazolo[3 4-d]pyrimidin-4-one] | – | – | 8.15
